The source of these data is US7148193B2, “Compounds that bind to growth hormone receptor” (Antyra, Inc., priority 1997, dated 2006).

In assay [1] the target is T1, rGHBP (Rattus norvegicus, UniProt P16310).
T1 construct: 1–48 of GHBP; The 3′ oligo used for this reaction encoded the mutation L43R (CTG→AGA); The second PCR reaction amplified the DNA encoding amino acids 38–260; 6xHis; made in house
T1 sequence (P16310 19-278 isoform P16310-2): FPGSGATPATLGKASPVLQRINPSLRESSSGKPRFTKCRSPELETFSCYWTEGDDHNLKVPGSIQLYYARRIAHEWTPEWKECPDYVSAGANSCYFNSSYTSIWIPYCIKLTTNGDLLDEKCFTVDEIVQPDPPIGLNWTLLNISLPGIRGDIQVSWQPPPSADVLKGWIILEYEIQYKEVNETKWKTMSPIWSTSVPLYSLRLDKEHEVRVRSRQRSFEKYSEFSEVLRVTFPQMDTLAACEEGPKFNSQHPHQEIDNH
The assay is described as follows: Time-resolved fluorometric detection (TRFD) of specific bLigand binding to rGHBP and its competition. As to conditions: TRFD. On the procedure:
For this invention, saEu forms a ternary complex with bP and rGHBP (i.e., the rGHBP:bP:saEu complex). As described herein, the TRFD assay is performed using biotinylated GH (bGH) as bLigand. Biotinylated H5-mutant peptides bP#447 (SEQ ID NO:11) and bP#418 (SEQ ID NO:12) are also used as bLigand (see below). The TRFD assay described herein faithfully reports the competition of ligand binding to the active site of rGHR. To perform the TRFD assays, soluble rGHBP is attached to the surface of microtiter wells, then incubated with bP. Unbound bP is than washed away and (sa)Eu is added to complex with receptor bound bP. The rGHBP:bP bound (sa)Eu is then converted into its highly fluorescent state and detected by TRFD.
Wells were coated with rGHBP(100 ng/well) overnight as described. ED50 and IC50 were calculated from analysis of specific bLigand binding to rGHBP. Competitors were added 1 hr prior to addition of bLigand as described.
rGHBP (50–200 μg/ml in 50 mM NaHCO3) was coated onto low-fluorescence MaxiSorp (Nunc) plates (100 μl/well) overnight at 4° C. The plates were blocked with PBS containing 2% non-fat milk and 0.05% BSA for 2 hr at room temperature, followed by three PBS washes. For competitions, serial dilutions of unlabelled growth hormone (0.1 nM-100 nM) or MAb 2C3 (0.67–67 nM) were added to the plates (100 μl/well) and incubated at room temperature for 1–2 hr. Biotinylated peptide or biotinylated GH (10× concentrations) were incubated in blocking buffer for 30 min to decrease non-specific binding. Ten microliters of the 10× concentrated material was added to the plates and incubated at room temperature for 1 hr to overnight.
The plates were then washed five times with Tris-buffered saline (pH 7.5) containing 0.1% Tween-20 (TTBS). To each well, 100 μl of europium-labeled streptavidin in DELFIA assay buffer (100 mM Tris-HCl, pH 7.8; 150 mM NaCl; 0.5% BSA; 0.05% bovine Ig; 0.05% NaN3; 0.01% Tween-20) was added and incubated for 1.5 hr at room temperature. The plates were then washed five times with TTBS and tapped dry. Subsequently, 100 μl of DELFIA enhancement solution (100 mM acetone-potassium hydrogen phthalate, pH 3.2; 15 mM 2-naphtyltrifluoroacetate; […] tri(n-octyl)-phosphine oxide; 0.1% Triton X-100) was added to each well, and the plates were shaken for 10 min at room temperature. Fluorescence of each sample well was measured at 615 nm using a DELFIA 1234 fluorometer (EG&G Wallac). General procedure and references as described by Wallac are available in “Lanthanide labeling for time-resolved fluorometry”: Wallac publication 1244–1126-03.

Assay [2] has as its target T1, rGHBP. Description: BIAcore affinity measurements of bPeptide binding to rGHBP. As to conditions: BIAcore appKD and phage competition. On the procedure:
GHBP was immobilized onto one flow-cell of a CM-5 sensor chip (Biosensor) using amine coupling chemistry and the manufacturer's recommended protocol. An unrelated IgG was immobilized in the same manner to another flow cell of the same chip as a control surface. Increasing concentrations of synthetic peptide were injected over both surfaces, and the binding responses were allowed to come to equilibrium. After subtraction of background binding from the control surface, the results were used to derive an equilibrium dissociation constant using Scatchard analysis.
The rat GHBP (100 μg/ml) was immobilized onto a CM-5 sensor chip using amino coupling chemistry and the manufacturer's recommended protocol. The final surface density was 4000 RU. A monoclonal antibody was immobilized onto another flow cell as a control surface. Peptides (50 μg/ml) were injected at a flow rate of 5 μl/min. Background binding to the control surface was subtracted prior to further analysis.

Where a SMILES comes first, the peptide text is derived from it. Bridges are numbered along the chain shown (N, C = ends).

With `CC(C)C[C@@H]1NC(=O)[C@H](CCCNC(=N)N)NC(=O)[C@H](CCC(N)=O)NC(=O)[C@@H](NC(=O)[C@H](CC(C)C)NC(=O)[C@H](CC(=O)O)NC(=O)[C@H](CCCCN)NC(=O)[C@H](Cc2ccc(O)cc2)NC(=O)[C@@H](N)CC(=O)O)CSSC[C@@H](C(=O)N[C@@H](C)C(=O)N[C@@H](CCCCN)C(=O)N[C@@H](CCCCN)C(=O)O)NC(=O)[C@H](Cc2c[nH]c3ccccc23)NC(=O)CNC(=O)[C@H](CO)NC(=O)[C@H](CC(C)C)NC(=O)[C@H](Cc2c[nH]c3ccccc23)NC(=O)CNC(=O)[C@@H]2CCCN2C(=O)[C@H](Cc2c[nH]c3ccccc23)NC(=O)CNC(=O)[C@H](C(C)C)NC(=O)CNC1=O` [#447], the “binding better than H5WT or bP#445” value in assay [1] turned out to be 10 times. Besides, the “affinity for rGHBP, ranking” value in assay [2] was “highest affinity”.
For `CC(C)C[C@@H]1NC(=O)[C@H](Cc2c[nH]c3ccccc23)NC(=O)CNC(=O)[C@@H]2CCCN2C(=O)[C@H](Cc2c[nH]c3ccccc23)NC(=O)[C@H]([C@@H](C)O)NC(=O)[C@H](C(C)C)NC(=O)[C@H](CCC(N)=O)NC(=O)[C@H](Cc2c[nH]c3ccccc23)NC(=O)[C@H](CO)NC(=O)[C@H](CCC(N)=O)NC(=O)[C@@H](NC(=O)[C@H](CC(C)C)NC(=O)[C@H](CC(=O)O)NC(=O)[C@H](CCCCN)NC(=O)[C@H](Cc2ccc(O)cc2)NC(=O)[C@@H](N)CC(=O)O)CSSC[C@@H](C(=O)N[C@@H](C)C(=O)N[C@@H](CCCCN)C(=O)N[C@@H](CCCCN)C(=O)O)NC(=O)[C@H](Cc2c[nH]c3ccccc23)NC(=O)CNC(=O)[C@H](C)NC1=O` [#418] (H-DYKDLCQSWQVTWPGWLAGWCAKK-OH; disulfide 6-21; N-terminus and C-terminus assumed), in that order: 10 times and “highest affinity”.
